Data published in patent US20240182453A1, “NOVEL SUBSTITUTED PYRAZINE-CARBOXAMIDE DERIVATIVES” (Boehringer Ingelheim International GmbH, priority 2022, published 2024).
pIC50: −log10 of the molar value.

Biological target: human metabotropic Glutamate 4 receptor (mGluR4) (Homo sapiens (Human), UniProt Q14833)
Assay: Assay A: in vitro testing of mGluR4 potency (glutamate-induced cAMP lowering, HTRF cAMP)
Assay type: cell-based
Settings: HEK293 cells overexpressing human mGluR4; 10 uM L-glutamic acid, 1 uM forskolin; compounds of the present invention
Description: A. In Vitro Testing of mGluR4 Potency
The in vitro activity of the compounds according to the invention may be investigated as follows:
The HEK293 cell overexpressing the human metabotropic Glutamate 4 receptor are thawed at 37° C. and immediately diluted with cell culture medium. After centrifugation, the cell pellet is re-suspended in medium and then distributed from a stirred spinner flask into the wells of the assay plate. The plates are incubated for one hour at room temperature before they are incubated for 24 hours at 37° C./5% CO2. After washing the cells in the plate three times with 80 uL HBSS/HEPES buffer (10 uL buffer remained in the wells after washing), 5 uL per well of compounds diluted in HBSS/HEPES buffer containing 0.2% BSA (final concentration: 0.1%) and 1 mM IBMX (final concentration: 0.5 mM) are added to the wells of the assay plate. Thereafter 5 uL per well of L-Glutamic acid (final concentration: 10 uM), forskolin (final concentration: 1 uM) and 1 mM IBMX (final concentration: 0.5 mM) dissolved in HBSS/HEPES buffer containing 0.2% BSA (final concentration: 0.1%) are added to the assay plate (final DMSO concentration: 1%). Several wells of the assay plate are used either for the positive and the negative controls or for the cAMP standard curve. The assay plate is incubated for 30 minutes at room temperature. Then 5 ul per well of Anti-cAMP-Antibody-d2 solution and 5 ul per well of cAMP-Europium Cryptate dilution are added to all wells of the plate and the plate is incubated another 60 minutes light protected at room temperature. The emission at 615 nm and 665 nm (Excitation wavelength: 320 nm) are measured on the EnVision™ reader (Perkin Elmer). The ratio between the emission at 665 nm and 615 is calculated by the reader. The whole assay is performed in the dark or under green light.
The cAMP standard is prepared by diluting the cAMP stock solution with HBSS/Hepes buffer: 5 μl/well of the cAMP dilutions (in HBSS/Hepes buffer containing 1 mM IBMX and 0.2% BSA—final concentration: 0.5 mM IBMX and 0.1% BSA) are added to 10 ul/well HBSS/Hepes buffer plus 5 ul/well 4% DMSO in HBSS/Hepes containing 0.2% BSA (final DMSO concentration: 1%—like in the wells containing compounds) in the wells of the assay plate. The final cAMP concentrations in the assay plate are: 0, 0.17, 0.69, 2.78, 11.1, 44.5, 178, and 712 nM (two wells/cAMP concentration).
Each assay microtiter plate contained also wells with vehicle controls instead of compound as controls for L-Glutamic acid induced signal (negative control; 100% CTL; 10 uM L-Glutamic acid+1 uM forskolin+0.5 mM IBMX+1% DMSO) and wells with vehicle controls without L-Glutamic acid as controls for non-specific changes in signal (positive control; 0% CTL; 0 uM L-Glutamic acid+1 uM forskolin+0.5 mM IBMX+1% DMSO).
The analysis of the data is performed by the calculation the ratio between the emission at 665 nm and the emission at 615 nm (Em665/Em615 ratio). Thereafter the signals of the compounds are normalized using the positive and negative controls by the following formula:
PoC=100×((Signal Sample−Positive Control)/(Negative Control−Positive Control))

Sequence of human metabotropic Glutamate 4 receptor (mGluR4) (Q14833 33-912): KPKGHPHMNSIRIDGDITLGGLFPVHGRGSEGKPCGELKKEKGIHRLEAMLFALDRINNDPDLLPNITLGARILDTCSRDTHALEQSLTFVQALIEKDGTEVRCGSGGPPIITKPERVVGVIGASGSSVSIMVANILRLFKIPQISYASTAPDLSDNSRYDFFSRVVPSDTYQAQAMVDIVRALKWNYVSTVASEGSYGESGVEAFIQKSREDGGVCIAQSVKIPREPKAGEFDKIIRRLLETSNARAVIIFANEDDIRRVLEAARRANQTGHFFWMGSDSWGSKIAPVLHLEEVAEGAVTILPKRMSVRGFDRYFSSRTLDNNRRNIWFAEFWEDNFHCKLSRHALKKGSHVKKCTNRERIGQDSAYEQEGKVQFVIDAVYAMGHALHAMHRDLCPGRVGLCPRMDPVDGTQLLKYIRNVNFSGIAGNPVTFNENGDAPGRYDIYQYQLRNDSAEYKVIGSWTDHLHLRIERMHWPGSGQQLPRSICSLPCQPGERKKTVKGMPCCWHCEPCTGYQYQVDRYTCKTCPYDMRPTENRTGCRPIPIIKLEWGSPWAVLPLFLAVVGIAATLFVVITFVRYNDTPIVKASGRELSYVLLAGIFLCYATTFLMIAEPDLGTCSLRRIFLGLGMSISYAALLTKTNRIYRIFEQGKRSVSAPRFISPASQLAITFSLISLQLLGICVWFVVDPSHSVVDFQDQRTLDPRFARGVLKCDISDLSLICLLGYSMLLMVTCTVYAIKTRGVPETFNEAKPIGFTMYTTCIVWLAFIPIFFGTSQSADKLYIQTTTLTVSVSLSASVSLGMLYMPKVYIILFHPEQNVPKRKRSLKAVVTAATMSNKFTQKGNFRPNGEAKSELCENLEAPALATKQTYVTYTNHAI

| Structure (SMILES) | pIC50 |
| --- | --- |
| COCCn1c(C(NC(=O)c2cnc(C)cn2)C2CCOC2)nc2cc(Cl)ccc21 (single isomer, unassigned) [Example 91-1, N-{[5-chloro-1-(2-methoxyethyl)-1H-1,3-benzodiazol-2-yl](oxolan-3-yl)methyl}-5-methylpyrazine-2-carboxamide] | 7.49 |
| COCCn1c([C@@H](NC(=O)c2cnc(C)cn2)C2CC2)nc2c(C)c(C#N)ccc21 [Example 18, N-[(S)-[5-cyano-1-(2-methoxyethyl)-4-methyl-1H-1,3-benzodiazol-2-yl](cyclopropyl)methyl]-5-methylpyrazine-2-carboxamide] | 8.15 |
| Cc1cnc(C(=O)N[C@H](c2nc3cc(Cl)ccc3n2C)C(C)C)cn1 [Example 72, N-[(1S)-1-(5-chloro-1-methyl-1H-1,3-benzodiazol-2-yl)-2-methylpropyl]-5-methylpyrazine-2-carboxamide] | 8.10 |
| CCn1c([C@@H](NC(=O)c2cnc(C)cn2)C2CC2)nc2cc(OC(F)F)ccc21 [Example 49, N-[(S)-cyclopropyl[5-(difluoromethoxy)-1-ethyl-1H-1,3-benzodiazol-2-yl]methyl]-5-methylpyrazine-2-carboxamide] | 8.15 |
| CCn1c([C@@H](NC(=O)c2cnc(C)cn2)C2CC2)nc2cc(F)ccc21 [Example 1, N-[(S)-cyclopropyl(1-ethyl-5-fluoro-1H-1,3-benzodiazol-2-yl)methyl]-5-methylpyrazine-2-carboxamide] | 8.40 |
| CCn1c([C@@H](NC(=O)c2cnc(C(F)F)cn2)C(C)(C)O)nc2cc(F)ccc21 [Example 65, 5-(difluoromethyl)-N-[(1R)-1-(1-ethyl-5-fluoro-1H-1,3-benzodiazol-2-yl)-2-hydroxy-2-methylpropyl]pyrazine-2-carboxamide] | 7.80 |
| Cc1cnc(C(=O)N[C@H](c2nc3cc(OC(F)(F)F)ccc3n2C)[C@@H]2CCCOC2)cn1 [Example 78, 5-methyl-N-[(S)-[1-methyl-5-(trifluoromethoxy)-1H-1,3-benzodiazol-2-yl][(3S)-oxan-3-yl]methyl]pyrazine-2-carboxamide] | 7.89 |
| CC(C)(O)[C@H](NC(=O)c1cnc(C(F)F)cn1)c1nc2cc(F)ccc2n1CC(F)F [Example 83, N-[(1R)-1-[1-(2,2-difluoroethyl)-5-fluoro-1H-1,3-benzodiazol-2-yl]-2-hydroxy-2-methylpropyl]-5-(difluoromethyl)pyrazine-2-carboxamide] | 7.42 |
| COCCn1c([C@@H](NC(=O)c2cnc(C)cn2)[C@@H]2CCOC2)nc2cc(Cl)ccc21 [Example 91, N-[(S)-[5-chloro-1-(2-methoxyethyl)-1H-1,3-benzodiazol-2-yl][(3S)-oxolan-3-yl]methyl]-5-methylpyrazine-2-carboxamide] | 7.96 |
| CO[C@H](C)[C@H](NC(=O)c1cnc(C)cn1)c1nc2cc(OC(F)(F)F)ccc2n1CCOC1CCC1 [Example 120, N-[(1R,2R)-1-[1-(2-cyclobutoxyethyl)-5-(trifluoromethoxy)-1H-1,3-benzodiazol-2-yl]-2-methoxypropyl]-5-methylpyrazine-2-carboxamide] | 9.00 |
| Cc1cnc(C(=O)N[C@H](c2nc3cc(F)ccc3n2C(C)C)[C@H]2CCOC2)cn1 [Example 84, N-[(S)-[5-fluoro-1-(propan-2-yl)-1H-1,3-benzodiazol-2-yl][(3R)-oxolan-3-yl]methyl]-5-methylpyrazine-2-carboxamide] | 7.59 |
| O=C(N[C@H](c1nc2cc(F)ccc2n1CC(F)F)C1CC1)c1cnc(C(F)F)cn1 [Example 4, N-[(S)-cyclopropyl[1-(2,2-difluoroethyl)-5-fluoro-1H-1,3-benzodiazol-2-yl]methyl]-5-(difluoromethyl)pyrazine-2-carboxamide] | 8.40 |
| COCCn1c([C@@H](NC(=O)c2cnc(C)cn2)[C@H]2CCOC2)nc2cc(C(F)(F)F)ccc21 [Example 87, N-[(S)-[1-(2-methoxyethyl)-5-(trifluoromethyl)-1H-1,3-benzodiazol-2-yl][(3R)-oxolan-3-yl]methyl]-5-methylpyrazine-2-carboxamide] | 7.92 |
| COCCn1c([C@@H](NC(=O)c2cnc(C)cn2)C2CC2)nc2cc(Cl)c(F)cc21 [Example 21] | 8.52 |
| CCn1c([C@@H](NC(=O)c2cnc(C)cn2)C(C)(C)O)nc2cc(F)ccc21 [Example 39, N-[(1R)-1-(1-ethyl-5-fluoro-1H-1,3-benzodiazol-2-yl)-2-hydroxy-2-methylpropyl]-5-methylpyrazine-2-carboxamide] | 7.55 |
| COCCn1c([C@@H](NC(=O)c2cnc(C(F)F)cn2)[C@@H]2CCOC2)nc2cc(OC(F)(F)F)ccc21 [Example 23, 5-(difluoromethyl)-N-[(S)-[1-(2-methoxyethyl)-5-(trifluoromethoxy)-1H-1,3-benzodiazol-2-yl][(3S)-oxolan-3-yl]methyl]pyrazine-2-carboxamide] | 8.40 |
| COCCn1c([C@H](CC2CC2)NC(=O)c2cnc(C)cn2)nc2cc(F)ccc21 [Example 24, N-[(1S)-2-cyclopropyl-1-[5-fluoro-1-(2-methoxyethyl)-1H-1,3-benzodiazol-2-yl]ethyl]-5-methylpyrazine-2-carboxamide] | 8.15 |

Continued, values first:

| pIC50 | Structure (SMILES) |
| --- | --- |
| 8.52 | CCn1c([C@@H](NC(=O)c2cnc(C)cn2)[C@]2(O)CCCOC2)nc2cc(C(F)(F)F)ccc21 [Example 149, N-[(R)-[1-ethyl-5-(trifluoromethyl)-1H-1,3-benzodiazol-2-yl][(3R)-3-hydroxyoxan-3-yl]methyl]-5-methylpyrazine-2-carboxamide] |
| 7.85 | Cc1cnc(C(=O)N[C@H](c2nc3cc(F)c(Br)cc3n2C)C2CC2)cn1 [Example 110, N-[(S)-(6-bromo-5-fluoro-1-methyl-1H-1,3-benzodiazol-2-yl)(cyclopropyl)methyl]-5-methylpyrazine-2-carboxamide] |
| 7.70 | CCn1c([C@@H](NC(=O)c2cnc(C)cn2)[C@@H]2CCOC2)nc2cc(OC(F)(F)F)ccc21 [Example 97, N-[(S)-[1-ethyl-5-(trifluoromethyoxy)-1H-1,3-benzodiazol-2-yl][(3S)-oxolan-3-yl]methyl]-5-methylpyrazine-2-carboxamide] |
| 8.05 | O=C(N[C@@H](CC1CC1)c1nc2cc(F)ccc2n1CCOC(F)F)c1cnc(C(F)F)cn1 [Example 99, N-[(1S)-2-cyclopropyl-1-{1-[2-(difluoromethoxy)ethyl]-5-fluoro-1H-1,3-benzodiazol-2-yl}ethyl]-5-(difluoromethyl)pyrazine-2-carboxamide] |
| 7.89 | COCCCn1c([C@@H](NC(=O)c2cnc(C)cn2)[C@@H](C)OC)nc2cc(OC(F)(F)F)ccc21 [Example 130, N-[(1R,2R)-2-methoxy-1-[1-(3-methoxypropyl)-5-(trifluoromethoxy)-1H-1,3-benzodiazol-2-yl]propyl]-5-methylpyrazine-2-carboxamide] |
| 7.20 | CCn1c([C@@H](NC(=O)c2cnc(C)cn2)[C@]2(O)CCOC2)nc2ccc(C(F)(F)F)cc21 [Example 155, N-[(R)-[1-ethyl-6-(trifluoromethyl)-1H-1,3-benzodiazol-2-yl][(3R)-3-hydroxyoxolan-3-yl]methyl]-5-methylpyrazine-2-carboxamide] |
| 8.05 | Cc1cnc(C(=O)N[C@H](c2nc3cc(OC(F)(F)F)ccc3n2C2CC2)C2CC2)cn1 [Example 115, N-[(S)-cyclopropyl[1-cyclopropyl-5-(trifluoromethoxy)-1H-1,3-benzodiazol-2-yl]methyl]-5-methylpyrazine-2-carboxamide] |
| 7.82 | Cc1cnc(C(=O)N[C@H](c2nc3cc(C)c(F)cc3n2C)C2CC2)cn1 [Example 96, N-[(S)-cyclopropyl (6-fluoro-1,5-dimethyl-1H-1,3-benzodiazol-2-yl)methyl]-5-methylpyrazine-2-carboxamide] |
| 7.18 | CCn1c(C(NC(=O)c2cnc(C)cn2)C2CCOC2)nc2cc(F)ccc21 (single isomer, unassigned) [Example 143, N-[(1-ethyl-5-fluoro-1H-1,3-benzodiazol-2-yl)(oxolan-3-yl)methyl]-5-methylpyrazine-2-carboxamide] |
